Source: patent US9550821B2, “Modulation of ghrelin levels and ghrelin/unacylated ghrelin ratio using unacylated ghrelin” (ALIZÉ PHARMA SAS, priority 2012, dated 2017)
Where no end group is shown, it is not given here.

Experiments:
[1] = system: glucose, insulin and lipid metabolisms; settings: cited from earlier work; for retention of UAG full length activity on glucose, insulin and lipid metabolisms: from U.S. Pat. Nos. 8,222,217 and 8,318,664; for smallest UAG fragment retaining UAG biological activity: from U.S. Pat. Nos. 8,222,217, 8,318,664 and WO/2008/145749
[2] = system: AG-induced food intake; assay: AG-induced food intake in rats; type: in vivo, Sprague-Dawley rats; settings: rat, i.p. 42 μg/kg together with AG 13 μg/kg; food intake at 30 min, 1 h, 2 h
Procedure: With respect to the experimental data presented in FIG. 8, Sprague-Dawley rats of 7 weeks of age, weighing between 275 g and 300 g, were fed a pellet diet ad libitum and were singly housed in plastic cage. The experiment was performed at 2.5 h after the onset of the light cycle in freely fed rats. The rates were i.p. injected simultaneously with vehicle plus vehicle, vehicle+AG (13 μg/kg) or cyclised UAG (6-13) (SEQ ID NO: 25) (42 μg/kg)+AG (13 μg/kg). Immediately after the completion of the i.p. injection in rats, the night-ad-libitum food was removed and replaced by 2 pellets for each animal, previously weighed, placed into the top of the cage. Food intake was calculated as the difference between the food weight before and after the feeding period at each time interval (30 min, 1 h, and 2 h). Cumulative food intake was calculated by summating the values of the different time periods.

[3] = Overnight (15 hours) UAG infusion in T2DM subjects: serum UAG levels by MSD ELISA; type: in vivo, human; settings: placebo 105.9±31.4
Procedure: (§1) A continuous overnight (15 hours) infusion of two doses of UAG (3 μg UAG/kg/hr and 10 μg UAG/kg/hr) versus placebo in a cross-over model on the AG concentrations was performed in eight overweight subjects with type 2 diabetes. FIG. 1 depicts a schematic representation of the study protocol. Glucose and insulin responses to a standard breakfast meal (SBM) in the subjects and reasonable metabolic control were assessed.
Single-center, investigator initiated, double blind and placebo controlled randomized study. During the first visit medical history, medication use and vital signs of subjects were checked. Blood samples were also taken for chemistry and hematology analysis. […]
Infusions were performed at the local clinical research unit for 15 hours from 9 pm to […]. […] The dose was calculated based on the subject's weight. […]
Standard breakfast meal (SBM) consisted of: • 3 slices wheat bread; • 3 portions of margarine; • 2 slices of cheese (48% fat); • 1 portion of jam; • 1 cup of whole milk; and • 1 boiled egg; for a total of 714 kcal (17% proteins; 46% fat; and 37% carbohydrates). […] At each of the 3 visits, the following safety parameters were assessed: hemoglobin, hematocrit, platelet count, WBC count, RBC count, and differential and were determined using Sysmex XE 2100, Firma Sysmex, Ecustraat 11, 4879 NP Etten-Leur. […]

[4] = Safety evaluation during overnight UAG infusion in T2DM subjects; type: in vivo, human
Procedure: as §1
Standard breakfast meal (SBM) consisted of: • 3 slices wheat bread; • 3 portions of margarine; • 2 slices of cheese (48% fat); • 1 portion of jam; • 1 cup of whole milk; and • 1 boiled egg; for a total of 714 kcal (17% proteins; 46% fat; and 37% carbohydrates). […] At each of the 3 visits, the following safety parameters were assessed: hemoglobin, hematocrit, platelet count, WBC count, RBC count, and differential and were determined using Sysmex XE 2100, Firma Sysmex, Ecustraat 11, 4879 NP Etten-Leur. AST, ALT, alkaline phosphatase, total bilirubin, creatine phophokinase (CPK), lactate dehydrogenase (LDH), creatinine, urea, amylase, lipase, uric acid, glucose, cholesterol, LDL, HDL, triglycerides, sodium, potassium, calcium, chloride, protein and albumin are determined using the Hitachi Modular P800, Roche Transistorstraat 41, 1332 CK Almere. […] AG and UAG levels were assessed before the start of the overnight infusion, 10 minutes before the start and 30 minutes after the SBM. […]

Compound: EHQRVQ [UAG (8-13)]
- retention of UAG full length activity on glucose, insulin and lipid metabolisms [1]: retain the activity of UAG full length

Compound: Ser-Pro-Glu-His-Gln-Arg-Val-Gln (cycl) (SPEHQRVQ; cyclised; (1)..(8) Cyclic; listed as Homo sapiens) [cyclic UAG (6-13)]
- effect on AG-induced food intake (orexigenic effect) [2]: able to counteract the orexigenic effects induced by AG

Compound: CC(C)C[C@H](NC(=O)[C@H](CCCCN)NC(=O)[C@H](C)NC(=O)[C@@H]1CCCN1C(=O)[C@@H]1CCCN1C(=O)[C@H](CCCCN)NC(=O)[C@H](CCCCN)NC(=O)[C@H](CO)NC(=O)[C@H](CCC(=O)O)NC(=O)[C@H](CCCCN)NC(=O)[C@H](CCCNC(=N)N)NC(=O)[C@H](CCC(N)=O)NC(=O)[C@H](CCC(N)=O)NC(=O)[C@@H](NC(=O)[C@H](CCCNC(=N)N)NC(=O)[C@H](CCC(N)=O)NC(=O)[C@H](Cc1cnc[nH]1)NC(=O)[C@H](CCC(=O)O)NC(=O)[C@@H]1CCCN1C(=O)[C@H](CO)NC(=O)[C@H](CC(C)C)NC(=O)[C@H](Cc1ccccc1)NC(=O)[C@H](CO)NC(=O)[C@H](CO)NC(=O)CN)C(C)C)C(=O)N[C@@H](CCC(N)=O)C(=O)N1CCC[C@H]1C(=O)N[C@@H](CCCNC(=N)N)C(=O)O [UAG]
- serum UAG levels before start of the SBM (mean±SD) ([3]; 3 mcg/kg·hr UAG overnight infusion): 10998 ± 2623 pg/mL
- serum UAG levels before start of the SBM (mean±SD) ([3]; 10 mcg/kg·hr UAG overnight infusion): 12085 ± 1616 pg/mL
- laboratory evaluations ([4]; 3 and 10 μg UAG/kg/hr overnight infusion): no significant changes in chemistry or parameters
- side effects reported by subjects ([4]; 3 and 10 μg UAG/kg/hr overnight infusion vs placebo): did not report more side effects than placebo

Compound: His-Gln-Arg (HQR; listed as Homo sapiens) [UAG (9-11)]
- retention of UAG full length activity on glucose, insulin and lipid metabolisms [1]: retain the activity of UAG full length

Compound: Glu-His-Gln-Arg-Val (EHQRV; listed as Homo sapiens) [UAG (8-12)]
- retention of UAG full length activity on glucose, insulin and lipid metabolisms [1]: retain the activity of UAG full length

Compound: SPEHQRVQ [UAG (6-13)]
- retention of UAG full length activity on glucose, insulin and lipid metabolisms [1]: retain the activity of UAG full length

Compound: Glu-His-Gln-Arg (EHQR; listed as Homo sapiens) [UAG (8-11)]
- smallest UAG fragment retaining UAG biological activity [1]: smallest UAG fragment to retain UAG activities
- retention of UAG full length activity on glucose, insulin and lipid metabolisms [1]: retain the activity of UAG full length

Compound: His-Gln-Arg-Val (HQRV; listed as Homo sapiens) [UAG (9-12)]
- smallest UAG fragment retaining UAG biological activity [1]: smallest UAG fragment to retain the biological activity of UAG
- retention of UAG full length activity on glucose, insulin and lipid metabolisms [1]: retain the activity of UAG full length
